Assay results reported in paper PMC5363571 (Oncotarget, 2016).
Counter-ions that a name gives are not always drawn.

Target: USP7 (Homo sapiens, UniProt Q93009)
Experiment: biochemical
Set-up: Ub-AMC hydrolysis by recombinant USP7 (20 nM), 30 min pre-incubation, fluorescence read-out
Conditions: for inhibition at 50 µM: read-out: % Inhibition at 50 μM

USP7, sequence (Q93009 whole entry): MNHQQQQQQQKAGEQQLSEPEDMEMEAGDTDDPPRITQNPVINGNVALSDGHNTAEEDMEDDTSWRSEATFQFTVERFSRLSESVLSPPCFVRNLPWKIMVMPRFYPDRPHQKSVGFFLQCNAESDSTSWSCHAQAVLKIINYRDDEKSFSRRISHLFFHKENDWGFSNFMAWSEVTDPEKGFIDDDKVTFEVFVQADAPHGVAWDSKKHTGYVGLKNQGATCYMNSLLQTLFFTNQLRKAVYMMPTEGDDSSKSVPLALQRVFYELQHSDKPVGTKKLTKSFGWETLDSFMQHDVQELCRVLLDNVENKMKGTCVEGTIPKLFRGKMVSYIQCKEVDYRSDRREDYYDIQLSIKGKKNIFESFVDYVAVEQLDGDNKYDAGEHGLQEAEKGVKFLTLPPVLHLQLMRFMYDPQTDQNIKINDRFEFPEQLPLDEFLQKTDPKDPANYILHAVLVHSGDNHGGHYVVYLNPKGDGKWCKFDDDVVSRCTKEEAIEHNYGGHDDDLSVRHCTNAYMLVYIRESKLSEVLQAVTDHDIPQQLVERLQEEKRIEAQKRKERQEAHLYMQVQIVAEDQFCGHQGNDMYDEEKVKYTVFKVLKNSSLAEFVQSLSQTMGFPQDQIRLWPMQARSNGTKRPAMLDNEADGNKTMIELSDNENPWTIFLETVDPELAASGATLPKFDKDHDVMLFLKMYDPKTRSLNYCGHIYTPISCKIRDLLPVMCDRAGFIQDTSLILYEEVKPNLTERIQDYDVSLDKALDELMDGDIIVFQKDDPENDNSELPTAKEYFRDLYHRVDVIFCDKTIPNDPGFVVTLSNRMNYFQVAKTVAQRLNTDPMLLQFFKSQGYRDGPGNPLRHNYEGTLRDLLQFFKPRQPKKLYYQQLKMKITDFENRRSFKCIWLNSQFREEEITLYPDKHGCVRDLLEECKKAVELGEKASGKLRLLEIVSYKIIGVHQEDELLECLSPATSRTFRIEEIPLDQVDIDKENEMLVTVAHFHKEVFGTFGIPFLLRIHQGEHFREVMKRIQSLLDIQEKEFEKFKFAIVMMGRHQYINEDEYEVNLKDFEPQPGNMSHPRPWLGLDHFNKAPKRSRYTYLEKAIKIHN

Compound	inhibition at 50 µM [%]	% Inhibition at 50 μM (inhibitor) [%]
CCn1cc(C(=O)O)c(=O)c2cc(F)c(N3CCNC(C)C3)c(F)c21 (stereo not shown) [Lomefloxacin HCl]	8.6	–
CC1(C)CC[C@]2(C(=O)O)CC[C@]3(C)C(=CC[C@@H]4[C@@]5(C)C[C@H](O)[C@H](O)[C@@](C)(CO)[C@@H]5CC[C@]43C)[C@@H]2C1 [Bayogenin]	< 5	–
NCC1(CC(=O)O)CCCCC1 [Gabapentin]	< 5	–
O=C(CCCN1CCC(O)(c2ccc(Cl)cc2)CC1)c1ccc(F)cc1 [Haloperidol HCl]	< 5	–
CCOC(=O)C1=C[C@]2(CC)CCCN3CCc4c(n1c1ccccc41)[C@@H]32 [Vinpocetine]	38.5	–
CC(C)[C@H]1CC[C@H](C(=O)N[C@H](Cc2ccccc2)C(=O)O)CC1 [nateglinide]	< 5	–
O=C(c1ccc(OCCN2CCCCC2)cc1)c1c(-c2ccc(O)cc2)sc2cc(O)ccc12 [Raloxifene HCl]	< 5	–
COC1=C(OC)C(=O)C(CCCCCCCCCCO)=C(C)C1=O [Idebenone]	< 5	–
CCOC(=O)[N-]c1c[n+](N2CCOCC2)no1 [Molsidomine]	< 5	–
CC(=O)O[C@]1(C(C)=O)CC[C@H]2[C@@H]3C=C(C)C4=CC(=O)CC[C@]4(C)[C@H]3CC[C@@]21C [Megestrol acetate]	< 5	–
NC[C@H](O)c1ccc(O)c(O)c1 [Norepinephrine-(+)-tartrate l (-)]	< 5	–
C[C@]12C[C@H](O)[C@H]3[C@@H](CCC4=CC(=O)CC[C@@]43C)[C@@H]1CC[C@@H]2C(=O)CO [Corticosterone]	< 5	–
CN(CCOc1ccc(NS(C)(=O)=O)cc1)CCc1ccc(NS(C)(=O)=O)cc1 [Dofetilide]	< 5	–
COc1ccccc1Oc1c(NS(=O)(=O)c2ccc(C(C)(C)C)cc2)nc(-c2ncccn2)nc1OCCO [Bosentan]	< 5	–
CC(C)(C)[C@]1(O)CCN2C[C@H]3c4ccccc4CCc4cccc(c43)[C@@H]2C1 [Butaclamol (+)]	< 5	–
CC1CNc2c(cccc2S(=O)(=O)N[C@@H](CCCNC(=N)N)C(=O)N2CC[C@@H](C)C[C@@H]2C(=O)O)C1 (stereo partly shown) [Argatroban]	< 5	–
CCCCC(C#N)(Cn1cncn1)c1ccc(Cl)cc1 (stereo not shown) [Myclobutanil]	< 5	–
CCCCC[C@H](O)/C=C/[C@@H]1[C@@H](C/C=C\CCCC(=O)O)[C@@H](O)C[C@H]1O [Dinoprost]	< 5	–
COc1ccc2[nH]cc(CCNC(C)=O)c2c1 [Melatonin]	< 5	–
COc1cccc2c1C(=O)c1c(O)c3c(c(O)c1C2=O)C[C@@](O)(C(C)=O)C[C@@H]3O[C@H]1C[C@H](N)[C@H](O)[C@H](C)O1 [Daunorubicin HCl]	< 5	–
N[C@@H](Cc1cc(I)c(Oc2cc(I)c(O)c(I)c2)c(I)c1)C(=O)O [L-thyroxine [(3-[4-(4-hydroxy-3,5-diiodophenoxy)-3,5-diiodophenyl]-l-alanine]]	65.3	–
C[C@H](N)[C@H](O)c1ccccc1 [Phenylpropanolamine]	< 5	–
O=C(CCNNC(=O)c1ccncc1)NCc1ccccc1 [Nialamide]	< 5	–
CN(C)c1ccc(O)c2c1C[C@H]1C[C@H]3[C@H](N(C)C)C(O)=C(C(N)=O)C(=O)[C@@]3(O)C(O)=C1C2=O [Minocycline HCl]	< 5	–
Cc1c(C)c2c(c(C)c1O)CCC(C)(COc1ccc(CC3SC(=O)NC3=O)cc1)O2 (stereo not shown) [Troglitazone]	5.3	–
CC(=O)OCC[N+](C)(C)C [Acetylcholine Cl]	< 5	–

Compound	inhibition at 50 µM [%]	% Inhibition at 50 μM (inhibitor) [%]
Cc1ccc(N(CC2=NCCN2)c2cccc(O)c2)cc1 [Phentolamine HCl]	< 5	–
Cc1cnc(C(=O)NCCc2ccc(S(=O)(=O)NC(=O)NC3CCCCC3)cc2)cn1 [Glipizide]	< 5	–
CN1[C@@H]2C[C@@H](OC(=O)[C@H](CO)c3ccccc3)C[C@H]1[C@@H]1O[C@@H]12 [Scopolamine HBr]	< 5	–
CN1CCCCC1CCN1c2ccccc2Sc2ccc([S+](C)[O-])cc21 (stereo not shown) [Mesoridazine besylate]	16.5	–
CCCCCOC(=O)Nc1nc(=O)n([C@@H]2O[C@H](C)[C@@H](O)[C@H]2O)cc1F [Capecitabine]	< 5	–
CC(C)Nc1cccnc1N1CCN(C(=O)c2cc3cc(NS(C)(=O)=O)ccc3[nH]2)CC1 [Delavirdine mesylate]	< 5	–
OCCOCCN1CCN(C2=Nc3ccccc3Sc3ccccc32)CC1 [Quetiapine fumarate]	< 5	–
OCCN1CCN(CCCN2c3ccccc3Sc3ccc(C(F)(F)F)cc32)CC1 [Fluphenazine 2HCl]	< 5	–
Oc1ncnc2[nH]ncc12 [Allopurinol]	< 5	–
COCCc1ccc(OCC(O)CNC(C)C)cc1 (stereo not shown) [Metoprolol tartrate]	< 5	–
O=C(CCCCCCC(=O)Nc1ccccc1)NO [Vorinostat]	< 5	–
Nc1nc2ccc(OC(F)(F)F)cc2s1 [Riluzole HCl]	< 5	–
CN/C(=N\c1ccc(C2=NNC(=O)CC2C)cc1)NC#N (stereo not shown) [Siguazodan]	< 5	–
CC(=O)O[C@H]1C(=O)[C@@]2(C)[C@H]([C@H](OC(=O)c3ccccc3)[C@]3(O)C[C@H](OC(=O)[C@H](O)[C@@H](NC(=O)c4ccccc4)c4ccccc4)C(C)=C1C3(C)C)[C@]1(OC(C)=O)CO[C@@H]1C[C@@H]2O [Taxol]	26.9	–
CN1CCN(CC(=O)N2c3ccccc3C(=O)Nc3cccnc32)CC1 [Pirenzepine 2HCl]	< 5	–
CC1=C(/C=C/C(C)=C/C=C/C(C)=C/C(=O)O)C(C)(C)CCC1 [Retinoic acid]	< 5	–
CCCCCN(CCCCC)C(=O)C(CCC(=O)O)NC(=O)c1ccc(Cl)c(Cl)c1 (stereo not shown) [Lorglumide]	< 5	–
CCC(NC(C)C)C(O)c1ccc(O)c2[nH]c(=O)ccc12 (stereo not shown) [Procaterol hcl]	< 5	–
CNCCCC12CCC(c3ccccc31)c1ccccc12 [Maprotiline HCl]	11.3	–
CNCCC(Oc1ccccc1OC)c1ccccc1 (stereo not shown) [Nisoxetine HCl]	< 5	–
CN(CCOc1ccc(CC2SC(=O)NC2=O)cc1)c1ccccn1 (stereo not shown) [Rosiglitazone maleate]	< 5	–
NC12CC3CC(CC(C3)C1)C2 [Amantadine HCl]	< 5	–
COc1ccc2cc(CCC(C)=O)ccc2c1 [Nabumetone]	< 5	–
CN(C)CCOC(c1ccccc1)c1ccccc1 [Diphenhydramine HCl]	< 5	–
CCc1nn(CCCN2CCN(c3cccc(Cl)c3)CC2)c(=O)n1CCOc1ccccc1 [Nefazodone]	< 5	–
C[C@H]1[C@H](C)CC[C@]2(C(=O)O)CC[C@]3(C)C(=CC[C@@H]4[C@@]5(C)C[C@@H](O)[C@H](O)[C@@](C)(CO)[C@@H]5CC[C@]43C)[C@H]12 [Asiatic acid]	< 5	–

Compound	inhibition at 50 µM [%]	% Inhibition at 50 μM (inhibitor) [%]
COC(=O)Nc1nc2cc(C(=O)c3ccccc3)ccc2[nH]1 [Mebendazol]	< 5	–
N[C@@H](Cc1ccc(O)c(O)c1)C(=O)O [Levodopa]	< 5	–
CC[C@@]1(O)C(=O)OCc2c1cc1n(c2=O)Cc2cc3ccccc3nc2-1 [Camptothecin]	< 5	–
O=C(NCC1CCCCN1)c1cc(OCC(F)(F)F)ccc1OCC(F)(F)F (stereo not shown) [Flecainide]	< 5	–
CC(=O)SCC(Cc1ccccc1)C(=O)NCC(=O)OCc1ccccc1 (stereo not shown) [Racecadotril]	< 5	–
Nc1ccc(S(=O)(=O)Nc2ncccn2)cc1 [Sulfadiazine]	< 5	–
Nc1nc2c(ncn2COCCO)c(=O)[nH]1 [Acycloguanosine]	< 5	–
CC1CCc2c(N3CCC(O)CC3)c(F)cc3c(=O)c(C(=O)O)cn1c23 (stereo not shown) [Nadifloxacin]	< 5	–
C[C@]12CC[C@H](O)CC1=CC[C@@H]1[C@@H]2CC[C@]2(C)C(=O)CC[C@@H]12 [Dehydroepiandrosterone]	< 5	–
O=C(O)c1cccnc1Nc1cccc(C(F)(F)F)c1 [Niflumic acid]	< 5	–
Cc1cccc(Nc2ccccc2C(=O)O)c1C [Mefenamic acid]	< 5	–
CCN(CC)CCCC(C)Nc1c2ccc(Cl)cc2nc2ccc(OC)cc12 (stereo not shown) [Quinacrine 2HCl dihydrate]	< 5	–
CCCc1nc(C)c2c(=O)nc(-c3cc(S(=O)(=O)N4CCN(CC)CC4)ccc3OCC)[nH]n12 [Vardenafil]	< 5	–
CC(=O)O[C@H]1C[C@@H]2CC[C@@H]3[C@H](CC[C@@]4(C)[C@H]3C[C@H]([N+]3(C)CCCCC3)[C@@H]4OC(C)=O)[C@@]2(C)C[C@@H]1[N+]1(C)CCCCC1 [Pancuronium Br]	< 5	–
CN(C)C(=N)NC(=N)N [Metformin]	8.6	–
CO[C@H]1/C=C/O[C@@]2(C)Oc3c(C)c(O)c4c(O)c(c(/C=N/N5CCN(C)CC5)c(O)c4c3C2=O)NC(=O)/C(C)=C\C=C\[C@H](C)[C@H](O)[C@@H](C)[C@@H](O)[C@@H](C)[C@H](OC(C)=O)[C@@H]1C [Rifampicin]	< 5	–
O=C1NCN(c2ccccc2)C12CCN(CCCC(c1ccc(F)cc1)c1ccc(F)cc1)CC2 [Fluspirilene]	< 5	–
CCCC[N+]1(C)[C@@H]2C[C@@H](OC(=O)[C@H](CO)c3ccccc3)C[C@H]1[C@@H]1O[C@@H]12 (stereo partly shown) [Scopolamine n-butylbromide]	< 5	–
CCOC(=O)c1cnc2c(cnn2CC)c1NN=C(C)C [Etazolate]	< 5	–
CC/C(=C(\c1ccccc1)c1ccc(OCCN(C)C)cc1)c1ccccc1 [Tamoxifen citrate]	< 5	–
Cc1cn([C@H]2C[C@H](N=[N+]=[N-])[C@@H](CO)O2)c(=O)[nH]c1=O [3'-azido-3'-deoxythymidine]	< 5	–
CNC(=O)Oc1ccc2c(c1)[C@]1(C)CCN(C)[C@@H]1N2C [Physostigmine sulfate]	–	<5
Cc1scc2c1N(C(=O)CN1CCN(C)CC1)c1ccccc1NC2=O [Telenzepine 2HCl]	< 5	–
COc1ccc(CCN(C)CCCC(C#N)(c2ccc(OC)c(OC)c2)C(C)C)cc1OC (stereo not shown) [Verapamil]	< 5	–
